Measured values: doi:10.1101/2023.09.25.559386v1 (biorxiv, 2023)

Legend:
D1R [1] = target: T1, D1R (Homo sapiens, UniProt P21728); test: radioligand competition binding, cell homogenates
D1R [2] = target: T1, D1R; test: BRET Gs heterotrimer dissociation; format: cell-based

T1 sequence (P21728 whole entry): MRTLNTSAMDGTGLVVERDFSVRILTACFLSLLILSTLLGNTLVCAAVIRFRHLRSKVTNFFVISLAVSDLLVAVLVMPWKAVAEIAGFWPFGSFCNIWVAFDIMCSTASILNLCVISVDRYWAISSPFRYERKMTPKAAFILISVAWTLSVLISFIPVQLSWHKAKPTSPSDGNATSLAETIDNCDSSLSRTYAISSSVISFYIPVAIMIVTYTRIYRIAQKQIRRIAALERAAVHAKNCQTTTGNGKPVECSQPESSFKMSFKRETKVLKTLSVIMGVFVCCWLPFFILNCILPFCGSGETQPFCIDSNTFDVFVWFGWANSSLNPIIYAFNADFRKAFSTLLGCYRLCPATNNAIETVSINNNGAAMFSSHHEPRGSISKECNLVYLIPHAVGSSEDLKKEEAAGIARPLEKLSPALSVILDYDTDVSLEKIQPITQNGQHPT

SMILES	Ki (D1R [1]) [nM]	pKi (D1R [1]; […] [3H]SCH-23390, […] min, room temperature)	Kb (D1R [2]) [nM]
COCC[N+]1=C(/C=C/C=C2N(CCCCCC(=O)NCCCS(=O)(=O)Nc3ccc(C4CN(C)CCc5cc(Cl)c(O)cc54)cc3)c3ccc(S(=O)(=O)[O-])cc3C2(C)CCCS(=O)(=O)O)C(C)(CCCS(=O)(=O)O)c2cc(S(=O)(=O)O)ccc21 (stereo not shown) [compound 24, (E)-1-(6-((3-(N-(4-(7-Chloro-8-hydroxy-3-methyl-2,3,4,5-tetrahydro-1H-benzo[d]azepin-1-yl)phenyl)sulfamoyl)propyl)amino)-6-oxohexyl)-2-((E)-3-(1-(2-methoxyethyl)-3-methyl-5-sulfo-3-(3-sulfopropyl)-3H-indol-1-ium-2-yl)allylidene)-3-methyl-3-(3-sulfopropyl)indoline-5-sulfonate]	10.2		
CN1CCc2cc(Cl)c(O)cc2C(c2ccc(NS(=O)(=O)CCCCC(=O)NCc3cn(CCOCCOCCNC(=O)c4ccc(-c5c6ccc(N(C)C)cc6[o+]c6cc(N(C)C)ccc56)c(C(=O)[O-])c4)nn3)cc2)C1 (racemic) [compound 27, 2-(3,6-Bis(dimethylamino)xanthylium-9-yl)-5-((2-(2-(2-(4-((5-(N-(4-(7-chloro-8-hydroxy-3-methyl-2,3,4,5-tetrahydro-1H-benzo[d]azepin-1-yl)phenyl)sulfamoyl)pentanamido)methyl)-1H-1,2,3-triazol-1-yl)ethoxy)ethoxy)ethyl)carbamoyl)benzoate]	9.55		
COCC[N+]1=C(/C=C/C=C2N(CCCCCC(=O)NCCOCCn3cc(CNC(=O)CCCCS(=O)(=O)Nc4ccc(C5CN(C)CCc6cc(Cl)c(O)cc65)cc4)nn3)c3ccc(S(=O)(=O)[O-])cc3C2(C)CCCS(=O)(=O)O)C(C)(CCCS(=O)(=O)O)c2cc(S(=O)(=O)O)ccc21 (stereo not shown) [compound 26, 2-((E)-3-((E)-1-(6-((2-(2-(4-((5-(N-(4-(7-Chloro-8-hydroxy-3-methyl-2,3,4,5-tetrahydro-1H-benzo[d]azepin-1-yl)phenyl)sulfamoyl)pentanamido)methyl)-1H-1,2,3-triazol-1-yl)ethoxy)ethyl)amino)-6-oxohexyl)-3-methyl-5-sulfonato-3-(3-sulfonatopropyl)indolin-2-ylidene)prop-1-en-1-yl)-1-(2-methoxyethyl)-3-methyl-3-(3-sulfonatopropyl)-3H-indol-1-ium-5-sulfonate]	288		
COCC[N+]1=C(/C=C/C=C2N(CCCCCC(=O)NCCOCCOCCn3cc(CNC(=O)CCCCS(=O)(=O)Nc4ccc(C5CN(C)CCc6cc(Cl)c(O)cc65)cc4)nn3)c3ccc(S(=O)(=O)[O-])cc3C2(C)CCCS(=O)(=O)O)C(C)(CCCS(=O)(=O)O)c2cc(S(=O)(=O)O)ccc21 (stereo not shown) [compound 28, 2-((E)-3-((E)-1-(6-((2-(2-(2-(4-((5-(N-(4-(7-Chloro-8-hydroxy-3-methyl-2,3,4,5-tetrahydro-1H-benzo[d]azepin-1-yl)phenyl)sulfamoyl)pentanamido)methyl)-1H-1,2,3-triazol-1-yl)ethoxy)ethoxy)ethyl)amino)-6-oxohexyl)-3-methyl-5-sulfonato-3-(3-sulfonatopropyl)indolin-2-ylidene)prop-1-en-1-yl)-1-(2-methoxyethyl)-3-methyl-3-(3-sulfonatopropyl)-3H-indol-1-ium-5-sulfonate]		6.85 ± 0.07	
CN1CCc2cc(Cl)c(O)cc2C(c2ccc(NS(=O)(=O)CCCCC(=O)NCc3cn(CCOCCNC(=O)c4ccc(-c5c6ccc(N(C)C)cc6[o+]c6cc(N(C)C)ccc56)c(C(=O)[O-])c4)nn3)cc2)C1 (racemic) [compound 25, 2-(3,6-Bis(dimethylamino)xanthylium-9-yl)-5-((2-(2-(4-((5-(N-(4-(7-chloro-8-hydroxy-3-methyl-2,3,4,5-tetrahydro-1H-benzo[d]azepin-1-yl)phenyl)sulfamoyl)pentanamido)methyl)-1H-1,2,3-triazol-1-yl)ethoxy)ethyl)carbamoyl)benzoate]	4.57		51.3
CN1CCc2cc(Cl)c(O)cc2C(c2ccc(NS(=O)(=O)CCCNC(=O)c3ccc(-c4c5ccc(N(C)C)cc5[o+]c5cc(N(C)C)ccc45)c(C(=O)[O-])c3)cc2)C1 (racemic) [compound 23, 5-((3-(N-(4-(7-Chloro-8-hydroxy-3-methyl-2,3,4,5-tetrahydro-1H-benzo[d]azepin-1-yl)phenyl)sulfamoyl)propyl)carbamoyl)-2-(6-(dimethylamino)-3-(dimethyliminio)-3H-xanthen-9-yl)benzoate]	398		
